Data set [1] relates to human PRP (platelet rich plasma). In words: Platelet aggregation inhibiting effect, ADP-induced, human PRP. It counts as cell-based. The note with it: ADP final concentration 5 μM, preincubation 2 minutes, read-out: IC50 calculated from the aggregation rate. As to the method:
Among the compounds represented by the general formula (I) according to the present invention, the platelet aggregation inhibiting effect of the above compound A was examined with human PRP (platelet rich plasma).
A 9 volume sample of blood was taken out through an injection syringe having 1 volume of 3.8% sodium citrate added thereto from the vein of normal human (male), centrifuged at 170×g for 10 minutes at room temperature, and the resulting supernatant was isolated as PRP. The residual blood from which PRP had been isolated was centrifuged at 2,700×g for 15 minutes, and the resulting supernatant was isolated as platelet poor plasma (PPP).
The platelet aggregation test was carried out with AGGRIGOMETER (PAM-8C) manufactured by MEBANICS. The substance to be tested is dissolved in 50% DMSO-physiological saline, 50% methanol-physiological saline, or a physiological saline. The preincubation time of the substance to be tested and PRP was set as 2 minutes. An aggregation driving agent ADP (CHRONO-PARREAGENTS384 ADP, CHRONO-LOG Corp.) was diluted with physiological saline so that the final concentration is 5 μM.
The platelet aggregation inhibiting activity was calculated from the following equation as the suppressive rate against the […] by ADP when no compound to be tested was added:
Platelet aggregation inhibiting activity (%)= [formula]

A short description of data set [2]: Oral administration test: bioavailability in rats. The data set is classed as in vivo. The note with it: result in words. On the procedure:
1) Preparation of a Solution to be Administered
The compound was dissolved or suspended in either of the solvents in which the compound is preferably dispersed or dissolved including distilled water, CMC-Na, Tween 80, and HCO 60 to prepare the liquids for intravenous injection and oral administration. The liquids for intravenous injection and oral administration have a concentration of 0.3 mg/ml and 5 mg/ml, respectively. The concentrations of the compounds were determined by HPLC.
Rats having fasted for 16-20 hours were subjected to cannulation with a polyethylene tube (PE50) into femoral artery. […] The plasma samples were treated according to the method described below, and the activity substance was then measured by HPLC. […]
Among the observed values after administration, the observed values corresponding to the maximum plasma concentration (Cmax) and the time for reaching the maximum plasma concentration (Tmax) were confirmed. […] The area below the plasma concentration-time curve from 0 to infinity (AUCinfinite) was calculated by the trapezoidal method until the final observed value, and after the final observed value from the final observed value/kel as the sum of respective values. […]
Bioavailability (B.A. (%)) was calculated from the following equation: […]

The values below come from patent US6472397B1, “Nitrogen-containing heterocyclic compounds having antiplatelet aggregation effect and medicinal use thereof” (Meiji Seika Kaisha, Ltd., priority 1998, dated 2002).

Turning to `O=C(O)COc1ccc(C(=O)CN2CCN(C3CCNCC3)CC2=O)cc1` [Compound A], in data set [1], the IC50 was 42 nM.

Consider `CCOC(=O)COc1ccc(C(=O)CNC(=O)c2cc3c(s2)CCN(C(=O)OC(C)OC(C)=O)C3)cc1OCC(=O)OCC` (centres unmarked) [Compound B, Diethyl [[4-[[[[5-(1-Acetoxyethyl)oxycarbonyl-4,5,6,7-tetrahydrothieno[3,2-c]pyridin-2-yl]carbonyl]amino]-acetyl]-o-phenylene]dioxy]diacetate], for which the “absorption capacity via oral administration” value in data set [2] was “no high absorption capacity”.
